In patent publication US11945781B2, “Compounds for the treatment of acute and chronic kidney disease” (Southern Research Institute, priority 2020, dated 2024):
Like-named read-outs stand apart in the source and are kept apart here.

Test system: heme oxygenase-1 (HO-1)
Experiment: HO-1 promoter luciferase reporter screen (pHOGL3/4.5+220 stable HEK293 cells)
Format: cell-based, human
Conditions: Table 1; for Emax: HEK293, Emax as % of 5 μM hemin; for EC50: evaluation of thioquinolinones, HEK293 HO-1 reporter
Protocol: The generation of the pHOGL3/4.5+220 construct is described in Deshane, et al. (2010) “SpI regulates chromatin looping between an intronic enhancer and distal promoter of the human heme oxygenase-1 gene in renal cells” J Biol Chem 285(22): 16476-86. See also FIG. 1.
Briefly, BamHI sites were added to the 4.5-kb PCR product generated by long-range PCR from a bacterial artificial chromosome clone containing portions of chromosome 22 (accession no. Z82244), including the HO-1 gene. This fragment was cloned into the Bg/II restriction site of the multiple cloning region to make the parental clone (pHOGL3/4.5). The 220-bp intronic enhancer was amplified with SalI sites on either end and cloned into the SalI site of the vector to generate pHOGL3/4.5+220.
In order to generate cells that stably express luciferase expression vectors that lack a mammalian antibiotic selection cassette, HEK293 cells were co-transfected with either pHOGL3/4.5+220 (Deshane et al, 2010) or the Triple Mutant construct (Liby, Hock et al, 2005; Hock et al, 2007) and pcDNA3.1 Zeocin using Lipofectamine 2000. Cells were cultured in Zeocin (400 ug/ml; Invitrogen) for selection. Individual clones were sorted by flow cytometry and plated into a 96-well plate at a density of one cell per well. Clones were maintained and expanded in complete media (DMEM/10% FBS/1× antibiotic-antimycotic) supplemented with 100 ug/ml Zeocin, and incubated at 37° C. in 5% carbon dioxide. Incorporation of the Luciferase expression vectors was validated by assaying for luciferase. […]

Oc1c(F)cc(CSc2cccc3cccnc23)cc1F [Compound 1, 2,6-difluoro-4-((quinolin-8-ylthio)methyl)phenol]
Emax (Homo sapiens): 154% | EC50 (Homo sapiens, read-out: EC50): 430 nM

Oc1ccc(CSc2cccc3cccnc23)cc1 [Compound 2]
Emax (Homo sapiens): 127% | EC50 (Homo sapiens, read-out: EC50): 340 nM

Oc1ccc(CSc2cccc3cccnc23)cc1F [Compound 3]
Emax (Homo sapiens): 83.7% | EC50 (Homo sapiens, read-out: EC50): 200 nM

Oc1ccc(CSc2cccc3cccnc23)cc1Cl [Compound 4]
Emax (Homo sapiens): 106% | EC50 (Homo sapiens, read-out: EC50): 340 nM

Oc1c(F)cc(CSc2cccc3cccnc23)cc1Cl [Compound 5]
Emax (Homo sapiens): 113% | EC50 (Homo sapiens, read-out: EC50): 420 nM

Oc1c(F)c(F)c(CSc2cccc3cccnc23)c(F)c1F [Compound 6]
Emax (Homo sapiens): 113% | EC50 (Homo sapiens, read-out: EC50): 1050 nM

Oc1c(F)cc(F)cc1CSc1cccc2cccnc12 [Compound 7]
Emax (Homo sapiens): 55.2% | EC50 (Homo sapiens, read-out: EC50): 5250 nM

Fc1cc(F)cc(CSc2cccc3cccnc23)c1 [Compound 8]
EC50: Inactive

[O-][S+](Cc1cc(F)c(O)c(F)c1)c1cccc2cccnc12 (stereo not drawn) [Compound 9]
Emax (Homo sapiens): 106% | EC50 (Homo sapiens, read-out: EC50): 340 nM

O=S(=O)(Cc1cc(F)c(O)c(F)c1)c1cccc2cccnc12 [Compound 10]
EC50: Inactive

Oc1ccc(COc2cccc3cccnc23)cc1 [Compound 11]
EC50: Inactive

Oc1c(F)cc(CCSc2cccc3cccnc23)cc1F [Compound 12]
EC50: Inactive

Oc1ccc(CCSc2cccc3cccnc23)cc1 [Compound 13]
Emax (Homo sapiens): 122% | EC50 (Homo sapiens, read-out: EC50): 19000 nM

Oc1ccc(CSc2cccc3cccnc23)cc1 [Compound 14]
EC50: Inactive

Oc1c(F)cc(CSc2ccnc3ccccc23)cc1F [Compound 15]
EC50: Inactive

Oc1c(F)cc(CSc2nccc3ccccc23)cc1F [Compound 16]
EC50: Inactive

Oc1c(F)cc(CSc2ccncc2)cc1F [Compound 17]
EC50: Inactive

Oc1c(F)cc(CSc2cccc3ccccc23)cc1F [Compound 18]
EC50: Inactive

COc1c(F)cc(CSc2cccc3cccnc23)cc1F [Compound 19, 8-((3,5-difluoro-4-methoxybenzyl)thio)quinolone]
EC50: Inactive

COc1c(F)cc(CCSc2cccc3cccnc23)cc1F [Compound 20]
Emax (Homo sapiens): 69.9% | EC50 (Homo sapiens, read-out: EC50): 20000 nM

O=S(=O)(Nc1cc(F)c(O)c(F)c1)c1cccc2cccnc12 [Compound 21]
EC50: Inactive

O=C(Nc1cccc2cccnc12)c1cc(F)c(O)c(F)c1 [Compound 22]
EC50: Inactive

O=C(Nc1cc(F)c(O)c(F)c1)c1cccc2cccnc12 [Compound 23]
EC50: Inactive
